Ends that are not written are not given here.
What was measured:
[1] = tested on: TNF-α, IL-6, IL-1b, and COX-2; assay: Anti-inflammatory effect, Propionibacterium acnes-induced inflammatory cytokine mRNA by RT-PCR; type: cell-based; conditions: keratinocyte, 50 μg/ml Propionibacterium acnes, 50 μM, 24 hours
Method: Anti-inflammatory effects of the compounds of the present disclosure were examined using Propionibacterium acnes. To this end, keratinocyte was seeded in a 6-well plate at a density of 300,000 cells per well, and then incubated in a DMEM culture medium (Gibco, USA) containing 10% FBS for 24 hours under conditions of 37° C. and 5% CO2. After replacing the medium by a fresh medium, the cells were treated with 50 μg/ml of Propionibacterium acnes, and then the treated Propionibacterium acnes was treated with each 50 μM of the compound 1 and the compound 3 of the present disclosure and salicylic acid used as the positive control, followed by incubation for 24 hours under the same conditions as above. RNA was isolated from the cells, and cDNA was synthesized using a cDNA synthesis kit (Intron, Korea). PCR premix (Intron, Korea) and primers for each of TNF-α, IL-6, IL-1b, and COX-2 in Table 3 below were used to perform PCR. mRNA levels of TNF-α, IL-6, IL-1 b and COX-2 were determined by 5% agarose gel electrophoresis.

[2] = Test of solubility in water; type: physicochemical; conditions: distilled water, concentration of 10 mg/ml
[3] = tested on: HaCaT keratinocyte cell line; assay: Keratinocyte growth, sulforhodamine B colorimetric assay; type: cell-based; conditions: 50 μM, 72 hours, SRB, absorbance 560 nm
Method: (Cancer Res. 48:4266(1988)) […] The cultured cell line was detached from the bottom of the culture plate using a 1% trypsin solution, and only cell precipitate was collected by centrifugation. The cell precipitate was suspended in DMEM without FBS, and then cultured for 24 hours under conditions of 37° C. and 5% CO2. 24 hours later, the medium was replaced by the same medium from which serum was completely removed. A blank sample in which the cell precipitate was dissolved sterile in 10% DMSO was prepared for standardization. Each of the compound 1 to the compound 4 (50 μM) of the present disclosure, salicylic acid (50 μM), and EGF (100 nM) as a positive control were treated. Incubation was carried out under the same conditions as above for 72 hours. After completing the incubation, each culture supernatant was removed and cells were fixed with ethanol and washed with phosphate buffer saline (PBS) three times. After removing the washing solution, the cells were treated with a colorimetric SRB solution, and then sufficiently washed with 1% acetic acid. The cells were observed under a microscope to examine living cells. Absorbance at UV 560 nm was measured to determine cell viability.

[4] = tested on: collagen, elastin, and fibronectin; assay: Extracellular matrix mRNA expression by RT-PCR; type: cell-based; conditions: NIH3T3 fibroblast, 50 μM, 72 hours, as compared with salicylic acid
Method: (§1) Effects of the compounds of the present disclosure on extracellular matrix expression were examined using NIH3T3 fibroblast. To this end, NIH3T3 fibroblast was seeded in a 6-well plate at a density of 300,000 cells per well, and then incubated in a DMEM culture medium (Gibco, USA) containing 10% FBS for 24 hours under conditions of 37° C. and 5% CO2. The cultured cell line was detached from the bottom of the culture plate using a 1% trypsin solution, and a cell precipitate was collected by centrifugation. The cell precipitate was suspended in DMEM without FBS, and then cultured for 24 hours under conditions of 37° C. and 5% CO2. 24 hours later, the medium was replaced by the same medium from which serum was completely removed. A blank sample in which the cell precipitate was dissolved sterile in 10% DMSO was prepared for standardization. Each of the compound 1 and the compound 3 of the present disclosure, and salicylic acid as a positive control were treated at a concentration of 50 μM. Incubation was carried out under the same conditions as above for 72 hours. […]
Meanwhile, RNA was isolated from the cells treated in the same manner as the above experiment, and then cDNA was synthesized using a cDNA synthesis kit (Intron, Korea). […] Thereafter, mRNA levels of collagen, elastin, and fibronectin were determined by 5% agarose gel electrophoresis.

Propionibacterium acnes = assay: Antibacterial effect, paper disc clear zone on agar plate; type: cell-based; conditions: paper discs soaked with 200 mM, 3 days
Method: Antibacterial effects of the compounds synthesized in Example <1-2> were examined using Propionibacterium acnes. To this end, Propionibacterium acnes was first cultured on an agar plate. Paper discs were soaked with each 200 mM of the compound 1 to the compound 4 synthesized in Example <1-2> and salicylic acid, and then the paper disc soaked with the sample was placed on the agar plate on which Propionibacterium acnes had been cultured, followed by incubation. 3 days later, the size of a clear zone with no microbial growth was measured to determine the antibacterial effect of each compound.

[5] = tested on: collagen, elastin, and fibronectin; assay: Extracellular matrix protein expression by immunocytostaining; type: cell-based; conditions: NIH3T3 fibroblast, 50 μM, 72 hours, as compared with salicylic acid
Method: as §1, with “hours. Thereafter, to examine collagen, elastin, and fibronectin expression by immunocytostaining, cells were fixed with 4% paraformaldehyde, permeated with 0.5% Triton X-100, and blocked with 3% BSA.” for “hours.”

Which “expression of inflammatory cytokines induced by Propionibacterium acnes” value [1] does the source give for O=C(O)c1ccccc1O [salicylic acid, 2-hydroxybenzoic acid] here?
Its value is “hardly inhibited”.

What about the solubility in water [2] of the same molecule?
The solubility in water was “hardly dissolved in water”.

What about the growth of keratinocytes [3] of the same molecule?
The growth of keratinocytes was “inhibited growth of keratinocytes due to toxicity”.

With “compound 3: salicylic acid linked via covalent bond to peptide of SEQ ID NO: 3 (KLKKTETQ) (also: salicylic acid linked via covalent bond)” as the molecule, how does the “expression of inflammatory cytokines induced by Propionibacterium acnes” value [1] read?
Its value is “remarkably reduced”.

And the “mRNA expression levels of collagen, elastin, and fibronectin” value [4]?
The value was “remarkably increased”.

What about the “antibacterial effect (size of clear zone)” value (Propionibacterium acnes) of the same molecule?
Its value is “remarkably increased antibacterial effects”.

What about the “protein expression levels of collagen, elastin, and fibronectin” value [5] of the same molecule?
The value was “remarkably increased”.

Reference: patent US10874709B2, “Conjugate of salicylic acid and peptide” (CAREGEN CO., LTD., priority 2017, dated 2020)
